Test results taken from US20220000110A1, “COMPOSITIONS COMPRISING PYRIDINE CARBOXYLATE HERBICIDES AND CELLULOSE BIOSYNTHESIS INHIBITOR HERBICIDES” (priority 2018, published 2022).
Like-named read-outs stand apart in the source and are kept apart here.

How the values were obtained:
Type in all cases: in vivo
[1] = test system: Abutilon theophrasti (velvetleaf); assay: Greenhouse postemergence herbicidal effect, visual injury after 20-22 d; settings: ABUTH
Excerpt: (§1) Greenhouse Trial Methodology—Evaluation of Postemergence Herbicidal Effect
(§2) Seeds of the desired test plant species were planted in a 90:10% v/v (volume/volume) mixture of PRO-MIX® BX (Premier Tech Horticulture, Quakertown, Pa., USA) and PROFILE® GREENS GRADE™ (Profile Products LLC, Buffalo Grove, Ill., USA) planting mixture, which typically has a pH of 5.2 to 6.2 and an organic matter content of at least 50 percent, in plastic pots with a surface area of 103.2 square centimeters (cm^2). In some aspects, to help ensure good germination and healthy plants, a fungicide treatment and/or other chemical or physical treatment was applied. The plants were grown for 7-36 days (d) in a greenhouse with an approximate 14-hour (h) photoperiod which was maintained at about 23° C. during the day and 22° C. during the night. Nutrients and water were added on a regular basis and supplemental lighting was provided with overhead metal halide 1000-Watt lamps as necessary. The plants were employed for testing when they reached the second or third true leaf stage.
(§3) Emulsifiable concentrates of each of each pyridine carboxylate herbicide (Compound A or Compound B) were prepared at 100 grams acid equivalent per liter (g ae/L). The emulsifiable concentrates also included a safener, at 120 grams active ingredient per liter (g ai/L). An aliquot of each emulsifiable concentrate was placed in a 25 mL glass vial and diluted with an aqueous mixture of 1.25% (v/v) ACTIROB® B esterified rapeseed oil (Bayer Crop Science, Research Triangle Park, N.C., USA) or MSO® Concentrate with LECI-TECH® methylated soybean oil (Loveland Products, Loveland, Colo., USA) to obtain concentrated stock solutions at the highest application rate for each herbicide, based upon a 12 milliliter (mL) application volume at a rate of 187 liters per hectare (L/ha). The concentrated stock solutions were further diluted with an aqueous mixture of 1.25% v/v ACTIROB® B or MSO® Concentrate with LECI-TECH® to obtain stock solutions at reduced application rates for each herbicide. Spray solutions of the herbicide combinations (Compound A or Compound B plus the CBI herbicide) were prepared by adding weighed amounts or aliquots of the CBI herbicide to the stock solutions of Compound A or Compound B to form 12-mL spray solutions in two-way combinations.
(§4) The spray solutions were applied to the plant material with an overhead Mandel track sprayer equipped with 8002E nozzles calibrated to deliver 187 L/ha over an application area of 0.503 square meters (m^2) at a spray height of 18 inches (43 centimeters (cm)) above the average plant canopy. Control plants were sprayed in the same manner with the solvent blank. All pyridine carboxylate herbicide (component a) application rates are given as “g ae/ha” and all CBI herbicide (component b) application rates are given as “g ai/ha.”
(§5) The treated plants and control plants were placed in a greenhouse as described above and watered by sub-irrigation to prevent wash-off of the test compounds. After 20-22 d, the condition of the test plants as compared with that of the control plants was determined visually and scored on a scale of 0 to 100 percent where 0 corresponds to no injury and 100 corresponds to complete kill.

[2] = test system: Matricaria chamomilla (wild chamomile); assay: as above; settings: MATCH
Excerpt: as §1, §2, §3, §4, §5

[3] = test system: Euphorbia heterophylla (poinsettia); assay: as above; settings: Table 1, EPHHL
Excerpt: as §1, §2, §3, §4, §5

[4] = test system: Ipomoea hederacea (ivyleaf morningglory); assay: as above; settings: IPOHE
Excerpt: as §1, §2, §3, §4, §5

[5] = test system: Cirsium arvense (Canadian thistle); assay: as above; settings: CIRAR
Excerpt: as §1, §2, §3, §4, §5

[6] = test system: Stellaria media (chickweed); assay: as above; settings: Table 1, STEME
Excerpt: as §1, §2, §3, §4, §5

[7] = test system: Brassica napus (winter rape); assay: as above; settings: BRSNW
Excerpt: as §1, §2, §3, §4, §5

[8] = test system: Viola tricolor (wild pansy); assay: as above; settings: VIOTR
Excerpt: as §1, §2, §3, §4, §5

[9] = test system: Polygonum convolvulus (wild buckwheat); assay: as above; settings: POLCO
Excerpt: as §1, §2, §3, §4, §5

[10] = test system: Helianthus annuus (common sunflower); assay: as above; settings: Table 1, HELAN
Excerpt: as §1, §2, §3, §4, §5

[11] = test system: Oryza sativa (common rice); assay: as above; settings: Table 1, ORYSA
Excerpt: as §1, §2, §3, §4, §5

[12] = test system: Hordeum vulgare (spring barley); settings: HORVS
Excerpt: as §1, §2, §3, §4, §5

[13] = test system: Triticum aestivum (spring wheat); settings: TRZAS
Excerpt: as §1, §2, §3, §4, §5

N#CCOC(=O)c1nc(-c2ccc3cc[nH]c3c2F)c(F)c(N)c1Cl [Compound A, cyanomethyl 4-amino-3-chloro-5-fluoro-6-(7-fluoro-1H-indol-6-yl)pyridine-2-carboxylate]
Obs % visual injury ([1]; Table 1, Compound A 7.5 g/ha): 68% | Obs % visual injury ([1]; Table 1, Compound A 10 g/ha): 80% | Obs % visual injury ([1]; Table 2, Compound A 7.5 g/ha): 68% | Obs % visual injury ([1]; Table 2, Compound A 10 g/ha): 78% | Obs % visual injury ([2]; Table 3, Compound A 7.5 g/ha): 8% | Obs % visual injury ([2]; Table 3, Compound A 10 g/ha): 15% | Obs % visual injury ([2]; Table 3, Compound A 15 g/ha): 10% | Obs % visual injury ([2]; Table 4, Compound A 7.5 g/ha): 8% | Obs % visual injury ([2]; Table 4, Compound A 10 g/ha): 15% | Obs % visual injury ([2]; Table 4, Compound A 15 g/ha): 10% | Obs % visual injury ([3]; Compound A 7.5 g/ha): 97% | Obs % visual injury ([3]; Compound A 10 g/ha): 97% | Obs % visual injury ([4]; Table 1, Compound A 7.5 g/ha): 20% | Obs % visual injury ([4]; Table 1, Compound A 10 g/ha): 25% | Obs % visual injury ([4]; Table 2, Compound A 7.5 g/ha): 3% | Obs % visual injury ([4]; Table 2, Compound A 10 g/ha): 8% | Obs % visual injury ([5]; Table 1, Compound A 7.5 g/ha): 40% | Obs % visual injury ([5]; Table 1, Compound A 10 g/ha): 60% | Obs % visual injury ([5]; Table 2, Compound A 7.5 g/ha): 23% | Obs % visual injury ([5]; Table 2, Compound A 10 g/ha): 20% | Obs % visual injury ([6]; Compound A 7.5 g/ha): 89% | Obs % visual injury ([6]; Compound A 10 g/ha): 90% | Obs % visual injury ([7]; Table 3, Compound A 7.5 g/ha): 60% | Obs % visual injury ([7]; Table 3, Compound A 10 g/ha): 60% | Obs % visual injury ([7]; Table 3, Compound A 15 g/ha): 75% | Obs % visual injury ([7]; Table 4, Compound A 7.5 g/ha): 60% | Obs % visual injury ([7]; Table 4, Compound A 10 g/ha): 60% | Obs % visual injury ([7]; Table 4, Compound A 15 g/ha): 75% | Obs % visual injury ([8]; Table 1, Compound A 7.5 g/ha): 38% | Obs % visual injury ([8]; Table 1, Compound A 10 g/ha): 15% | Obs % visual injury ([8]; Table 2, Compound A 7.5 g/ha): 10% | Obs % visual injury ([8]; Table 2, Compound A 10 g/ha): 18% | Obs % visual injury ([9]; Table 1, Compound A 7.5 g/ha): 83% | Obs % visual injury ([9]; Table 1, Compound A 10 g/ha): 93% | Obs % visual injury ([9]; Table 2, Compound A 7.5 g/ha): 75% | Obs % visual injury ([9]; Table 2, Compound A 10 g/ha): 70% | Obs % visual injury ([9]; Table 3, Compound A 7.5 g/ha): 63% | Obs % visual injury ([9]; Table 3, Compound A 10 g/ha): 60% | Obs % visual injury ([9]; Table 3, Compound A 15 g/ha): 63% | Obs % visual injury ([9]; Table 4, Compound A 7.5 g/ha): 63% | Obs % visual injury ([9]; Table 4, Compound A 10 g/ha): 60% | Obs % visual injury ([9]; Table 4, Compound A 15 g/ha): 63% | Obs % visual injury ([10]; Compound A 7.5 g/ha): 90% | Obs % visual injury ([10]; Compound A 10 g/ha): 89% | Obs % visual injury ([11]; Compound A 7.5 g/ha): 3% | Obs % visual injury ([11]; Compound A 10 g/ha): 8% | Obs % visual injury ([12]; Table 3, Compound A 7.5 g/ha): 8% | Obs % visual injury ([12]; Table 3, Compound A 10 g/ha): 5% | Obs % visual injury ([12]; Table 3, Compound A 15 g/ha): 3% | Obs % visual injury ([12]; Table 4, Compound A 7.5 g/ha): 8% | Obs % visual injury ([12]; Table 4, Compound A 10 g/ha): 5% | Obs % visual injury ([12]; Table 4, Compound A 15 g/ha): 3% | Obs % visual injury ([13]; Table 3, Compound A 7.5 g/ha): 3% | Obs % visual injury ([13]; Table 3, Compound A 10 g/ha): 3% | Obs % visual injury ([13]; Table 3, Compound A 15 g/ha): 0% | Obs % visual injury ([13]; Table 4, Compound A 7.5 g/ha): 3% | Obs % visual injury ([13]; Table 4, Compound A 10 g/ha): 3% | Obs % visual injury ([13]; Table 4, Compound A 15 g/ha): 0%
